In the case of `NS(=O)(=O)c1cccc2c1SCC=C2`, the melting point is reported as 214 to 216 °C. With `OCc1cn(-c2ccc(SC(F)(F)F)cc2)cn1` the melting point was 145 to 147 °C. Compound `CN1CCN(C(=S)Nc2cc3sc(C(C)(C)C)nc3cc2N2CCN(C)CC2)CC1` has a melting point of 190 to 193 °C. Compound `N#CC1CCCn2cccc21` (stereo unspecified) has a melting point of 47 to 49 °C. Compound `O=S(=O)(CC(F)(F)F)N(Cc1cccnc1)c1cccc(Oc2ccccc2O)c1` has a melting point of 57.5 to 60 °C. With `CC(=O)c1ccc(NC(=O)NN2CC=CCC2)cc1` the melting point was 142 to 143 °C. For `Cn1c(C(F)(F)F)cc(=O)n(-c2cc(OCc3ccc(Cl)cc3Cl)c(Cl)cc2F)c1=O`, the melting point was 112 to 120 °C. With `O=C1N(Cc2nnc(-c3ccc(Cl)cc3)o2)c2ccccc2C12COc1cc3c(cc12)OCO3` (stereo unspecified) the melting point was 161 to 162 °C. `C=CCc1cc(OC)c(OC)cc1CC(C#N)=COC` showed a melting point of 77 to 79 °C. Compound `CCOC(=O)c1cccc2nc(OCC)n(Cc3ccc(-c4ccccc4C#N)cc3)c12` has a melting point of 131 to 132 °C. Compound `CCOC(=O)c1c(O)n(CC)c2cc(-c3ccncc3)ccc2c1=O` has a melting point of 153 to 157 °C. Work on `Cc1c2c(cn1CC(N)=O)CN=C(c1ccccc1Cl)c1cc(Cl)ccc1-2` yielded a melting point of 142 to 145 °C. `CC(=O)NNc1ccnc2c(NC(=O)c3c(Cl)cccc3Cl)cc(C)c(C)c12` showed a melting point greater than 250 °C. Work on `O=C(Cc1c[nH]c2ccccc12)NCCN1CCC(Nc2nc3ccccc3n2Cc2ccc(F)cc2)CC1` yielded a melting point of 194 °C. Compound `CNC(=S)C1(c2ccccc2)CCCCC1=O` (stereo unspecified) has a melting point of 86 °C. With `COC(=O)Cc1cn(-c2ccccc2)nc1O` the melting point was 144 to 145 °C. Compound `CNc1ncnc2c1ncn2Cc1c(F)cccc1Cl` has a melting point of 188 to 190 °C. In the case of `CCCCCCCCCCCCCCCCCCCCC(NC(C)=O)(C(=O)OCC)C(=O)OCC`, the melting point is reported as 76.5 to 77.5 °C. With `Nc1ccccc1CCc1ccccn1` the melting point was 59 to 61 °C. With `O=c1[nH]c2ncc(-c3ccc(O)cc3)nc2n1CC1CCCC1` the melting point was 296 to 297 °C. For `O=C(CC1CCCC(Cl)C1)Nc1ccccc1` (stereo unspecified), the melting point was 110 to 112 °C. Compound `COc1ccc(N2CCN(c3c(C)c(C)c4c(c3C)C(c3ccc(C(F)(F)F)cc3)C(C)(C)O4)CC2)cc1` (stereo unspecified) has a melting point of 208 to 211 °C. With `S=C(OCc1ccc(Cl)c(Cl)c1)SC(Cn1ccnc1)c1ccc(Cl)cc1Cl` (stereo unspecified) the melting point was 140 °C. In the case of `O=C(c1ccccc1)c1cc2c(s1)SCCc1cc(=O)n(-c3ccc(Cl)cc3)nc1-2`, the melting point is reported as 180 to 182 °C. `CCCCCS(=O)(=O)NC(=O)/C=C/c1ccc(OCC(COC(C)C)OC(C)=O)cc1Oc1ncc(C(F)(F)F)cc1Cl` (stereo unspecified) showed a melting point of 101 to 103 °C. With `Cc1nn(-c2cccc(N)c2)c2c1C(=O)CC(C)(C)C2` the melting point was 131 to 132 °C. With `Nc1ccc(C2CCc3ccccc3O2)cc1` (stereo unspecified) the melting point was 85 to 87 °C. `N#Cc1ccc(C(=C2C3CC4CC(C3)CC2C4)c2ncc[nH]2)cc1` gave a melting point of 155 °C. `OC(CCc1ccccc1)Cn1ccnc1` (stereo unspecified) gave a melting point of 106 to 107 °C. `Cc1ccc(C2C(=O)Oc3c2cc(C(C)(C)C)cc3C(C)(C)C)cc1C` (stereo unspecified) gave a melting point of 130 to 132 °C. In the case of `Cn1c(=O)cc(-c2nc(-c3ccccc3)cs2)c2cc(C(c3ccc(Cl)cc3)c3cnc(-c4ccccc4)[nH]3)ccc21` (stereo unspecified), the melting point is reported as 190 °C. Compound `Cc1cc(OS(=O)(=O)c2c(F)cccc2F)cc2c(C3CCN(C)CC3)cn(Cc3ccccc3)c12` has a melting point of 158 °C. `Cc1nc2ccccn2c(=O)c1CCN1CCC(Nc2nc3cncnc3n2Cc2cnccn2)CC1` gave a melting point of 180 °C. Work on `CSCc1cn(C)c2ccccc2c1=O` yielded a melting point of 118 to 120 °C. In the case of `CC(=O)O[C@H]1C=C(Br)[C@H](O)[C@@H](Br)[C@@H]1O`, the melting point is reported as 150 to 152 °C. In the case of `Cc1ccc(S(=O)(=O)NC(=O)N2CCN(C(=O)c3ccc(Nc4ccnc5cc(C(F)(F)F)ccc45)cc3)CC2)cc1`, the melting point is reported as 253 to 255 °C. In the case of `CCCCCCCCCCCCCCOc1ccc(CC(=O)OC)cc1Cl`, the melting point is reported as 24 to 25 °C. `O=C(O)c1ccc(NCCCc2ccccc2)cc1` showed a melting point of 162 to 163 °C. In the case of `C=C1C(=C)C2C(CCC3(C)C2CCC3(O)C(C)=O)C2(C)CCC(=O)C=C12` (stereo unspecified), the melting point is reported as 274 to 276 °C. For `CCCc1[nH]c(C(=O)OCC)c(CC)c1C`, the melting point was 58 to 59.5 °C. Work on `Cc1cn(C(C)C(=O)Nc2ccccc2)nc1-c1ccccc1` (stereo unspecified) yielded a melting point of 79 to 82 °C. Compound `COC(=O)C(Cc1ccc(OS(=O)(=O)C(F)(F)F)cc1)NC(=O)OCc1ccccc1` (stereo unspecified) has a melting point of 70 to 73 °C. In the case of `N#Cc1ccc(F)cc1-c1cc(-c2cnc3nc(C(F)(F)F)cnn23)ccc1F`, the melting point is reported as 200 to 201 °C. In the case of `CCOc1ccccc1-c1nc2cc3nc[nH]c3cc2c(=O)[nH]1`, the melting point is reported as 194 to 196 °C. `COC(=O)C1Cc2c(nc(C)n2-c2ccc(N(C)C)c(C)c2)CN1C(=O)C(c1ccccc1)c1ccccc1` (stereo unspecified) gave a melting point of 165 °C. Work on `N#Cc1ccc(COc2cccc(C(=O)Nc3ccc(C#N)cc3)c2)cc1` yielded a melting point of 205 to 207 °C. In the case of `CC(CS)C(=O)N1c2ccccc2CCC1C(=O)O` (stereo unspecified), the melting point is reported as 98 to 101 °C. In the case of `CCc1cccc(C)c1C(=O)N[C@@H](Cc1ccc([N+](=O)[O-])cc1)C(=O)OC`, the melting point is reported as 119 to 121 °C. Compound `CCOC(=O)c1c(CC(=O)O)n(-c2ccc(OC(C)C)cc2)c2ccc(Oc3ncccc3C(N)=O)cc12` has a melting point of 210 to 212 °C. In the case of `CCNC(=O)c1sc(Oc2ccc3c(c2)OCO3)c2c1CCc1cnn(C)c1-2`, the melting point is reported as 138 to 139 °C. `CCS(=O)c1cccc(-c2nc(=O)c3ccccc3s2)n1` (stereo unspecified) gave a melting point of 182 °C. Work on `C[C@@H]1N=C(c2ccccc2Cl)c2ccsc2NC1=O` yielded a melting point of 200 °C. Work on `CCOC(=O)Oc1ccc(C(=O)Oc2ccc(C#N)cc2)cc1` yielded a melting point of 145 °C. With `COC(=O)CNC(=O)c1ccc2ccccc2c1` the melting point was 118 °C. `O=C(Nc1ccc(C2CCCCC2)cc1)c1ncccc1O` showed a melting point of 91 to 93 °C. `CC(=O)OC1CSC(Oc2cccc(-c3ncccc3F)c2)C(OC(C)=O)C1OC(C)=O` (stereo unspecified) gave a melting point of 51 °C. Work on `COC(=O)c1cccc2c1N(CCN(C(C)C)C(C)C)C(=O)/C2=N\NC(N)=O` yielded a melting point of 192 to 195 °C. Work on `CCOC(=O)c1cc2cc(-c3ccc(Cl)cc3)ccc2o1` yielded a melting point of 108 to 110 °C. For `COc1nc2c(c3ccccc13)c1cc(Cl)ccc1n2C`, the melting point was 179 to 180 °C. `CCOC(=O)C1(O)c2ccccc2S(=O)(=O)N1C(C)(C)C` (stereo unspecified) showed a melting point of 93 to 95 °C. For `O=C(C=Cc1ccc(Cl)cc1)C1(Cl)CC1`, the melting point was 92 °C. In the case of `c1ccc(-c2cc(-c3ccc(C4CCCC4)cc3)sc2-c2ccccc2)cc1`, the melting point is reported as 150 °C. Compound `COc1ccc(-c2cc(C(=O)Nc3cccc(F)n3)c3ccccc3n2)cc1OC` has a melting point of 225 to 226 °C. For `O=C(NCCN1CCOCC1)Nc1nc2ccc(OCc3c(Cl)cccc3Cl)cc2s1`, the melting point was 268 to 271 °C. Compound `Nc1nc2c(ncn2Cc2ccccc2)c(=O)[nH]1` has a melting point of 305 to 308 °C. For `CCCCCCCc1nnc(-c2ccc(O)cc2)s1`, the melting point was 100 °C. For `CCc1ccc(OC(C)(C)C(=O)O)cc1OCCCc1cn(-c2ccc(C(F)(F)F)cn2)nc1C(C)C`, the melting point was 115 to 116 °C. In the case of `CCOC(=O)C1(C(=O)N(C)c2cccc3cc(-c4nccs4)[nH]c23)CCC1`, the melting point is reported as 197 °C. For `O=C(NCc1ccccc1)OCc1noc(-c2ccc(CN3CCCCCC3)s2)n1`, the melting point was 129 to 130 °C. Work on `O=C(C1=NC=CC(Br)(C(=O)Nc2ccccc2)C1)c1ccccc1` (stereo unspecified) yielded a melting point of 137 to 138 °C. `CCC(Cc1cccc(NC(C)=O)c1)C(=O)O` (stereo unspecified) gave a melting point of 131 to 132 °C.

— a melting point compilation (Tetko et al.; mined from patent text by program, amines drawn as free bases though some values may be those of a salt)
